Data on six molecules can be found in BindingDB's records for doi:10.1021/acsmedchemlett.4c00023 (n/a, 2024).

A word on the IC50: it is the midpoint of a concentration-inhibition curve.

This assay deals with Mitogen-activated protein kinase kinase kinase kinase 1 (Homo sapiens, UniProt Q92918). Description: Inhibition of full length recombinant human N-terminal GST-tagged HPK1 expressed in baculovirus infected Sf21 insect cells preincubated for 15 mins followed by MBP and ATP addition measured after 120 mins by ADP-Glo reagent based assay. Background: ADP-Glo turns the ADP formed in a reaction into a luminescent signal.
Sequence of Mitogen-activated protein kinase kinase kinase kinase 1 (Q92918 whole entry): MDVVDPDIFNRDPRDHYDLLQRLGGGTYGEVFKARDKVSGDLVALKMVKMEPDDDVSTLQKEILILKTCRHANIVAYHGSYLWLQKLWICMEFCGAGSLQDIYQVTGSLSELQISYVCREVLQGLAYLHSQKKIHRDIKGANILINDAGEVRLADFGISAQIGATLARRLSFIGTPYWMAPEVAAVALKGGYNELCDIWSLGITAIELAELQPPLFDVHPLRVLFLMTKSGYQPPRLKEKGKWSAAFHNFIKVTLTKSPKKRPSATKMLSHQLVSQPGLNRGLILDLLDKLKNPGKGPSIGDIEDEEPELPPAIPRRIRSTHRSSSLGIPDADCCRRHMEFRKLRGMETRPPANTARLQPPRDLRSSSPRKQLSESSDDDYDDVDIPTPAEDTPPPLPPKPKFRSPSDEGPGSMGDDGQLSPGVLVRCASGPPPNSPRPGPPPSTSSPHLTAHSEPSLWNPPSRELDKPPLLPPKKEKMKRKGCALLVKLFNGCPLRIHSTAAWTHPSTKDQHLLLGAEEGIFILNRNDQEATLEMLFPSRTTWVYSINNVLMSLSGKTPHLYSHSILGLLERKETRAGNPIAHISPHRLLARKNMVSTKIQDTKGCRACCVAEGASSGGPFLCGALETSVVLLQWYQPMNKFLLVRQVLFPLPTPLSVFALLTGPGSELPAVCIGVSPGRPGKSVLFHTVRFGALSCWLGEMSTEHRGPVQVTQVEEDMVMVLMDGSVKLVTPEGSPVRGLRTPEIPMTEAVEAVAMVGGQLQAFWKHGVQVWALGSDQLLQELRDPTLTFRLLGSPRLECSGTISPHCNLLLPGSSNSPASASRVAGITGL
Regarding `Cc1c(N2CCc3cnc(Nc4ccc(N5CCN(C)CC5)cc4)nc3C2)cnc2c1NCCO2` [US20240025922, Example 55], the IC50 was under 0.1 µM. Regarding `Cc1c(N2CCc3cnc(Nc4ccc5c(c4)CCOC5)nc3C2)cnc2c1NCCO2` [US20240025922, Example 84], the IC50 was under 0.1 µM. Turning to `COC1CCN(c2ccc(Nc3ncc4c(n3)CN(c3cnc5c(c3C)NCCO5)CC4)cc2)CC1` [US20240025922, Example 113], the IC50 is under 0.1 µM.

In the case of `CCc1c(N2CCc3cnc(Nc4ccc(CS(C)(=O)=O)cc4)nc3C2)cnc2c1NCCO2` [US20240025922, Example 145], the IC50 is under 0.1 µM. For `Cc1c(N2CCc3cnc(Nc4ccc(Cn5nccn5)cc4)nc3C2)cnc2c1NCCO2` [US20240025922, Example 185] the value was under 0.1 µM; for `Cc1c(N2CCc3cnc(Nc4ccc(Cn5cccn5)cc4)nc3C2)cnc2c1NCCO2` [US20240025922, Example 187], under 0.1 µM.
